Source: ChEMBL document CHEMBL1201862, “PubChem BioAssay data set” (2004)
The source made the active and inactive calls.

Assays:
[1] = target: T1, Estrogen receptor (Homo sapiens, UniProt P03372);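 further: potency for inhibiting coactivator peptide recruitment to the receptor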
T1 sequence (P03372 whole entry): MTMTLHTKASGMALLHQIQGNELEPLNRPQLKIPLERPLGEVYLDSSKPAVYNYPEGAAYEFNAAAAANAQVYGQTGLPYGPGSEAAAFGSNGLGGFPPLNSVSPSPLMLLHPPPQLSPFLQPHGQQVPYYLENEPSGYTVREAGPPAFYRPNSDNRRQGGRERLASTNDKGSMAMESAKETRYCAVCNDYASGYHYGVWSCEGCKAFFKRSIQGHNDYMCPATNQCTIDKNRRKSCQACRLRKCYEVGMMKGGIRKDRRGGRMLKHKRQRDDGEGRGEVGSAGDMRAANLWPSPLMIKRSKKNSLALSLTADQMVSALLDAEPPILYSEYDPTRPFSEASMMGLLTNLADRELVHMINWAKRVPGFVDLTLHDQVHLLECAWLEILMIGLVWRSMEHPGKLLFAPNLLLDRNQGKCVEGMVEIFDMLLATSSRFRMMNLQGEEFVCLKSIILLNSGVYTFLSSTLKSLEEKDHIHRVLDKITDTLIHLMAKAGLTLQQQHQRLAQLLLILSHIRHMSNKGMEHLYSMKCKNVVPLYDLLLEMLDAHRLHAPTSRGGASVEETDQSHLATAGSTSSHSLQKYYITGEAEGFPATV

[2] = target: T2, Carboxy-terminal domain RNA polymerase II polypeptide A small phosphatase 1 (Homo sapiens, UniProt Q9GZU7); assay: CTDSP1 inhibitors, concentration-response, biochemical, absorbance readout, ultra-high-throughput screen actives (AID 540297); assay type: functional
T2 sequence (Q9GZU7 whole entry): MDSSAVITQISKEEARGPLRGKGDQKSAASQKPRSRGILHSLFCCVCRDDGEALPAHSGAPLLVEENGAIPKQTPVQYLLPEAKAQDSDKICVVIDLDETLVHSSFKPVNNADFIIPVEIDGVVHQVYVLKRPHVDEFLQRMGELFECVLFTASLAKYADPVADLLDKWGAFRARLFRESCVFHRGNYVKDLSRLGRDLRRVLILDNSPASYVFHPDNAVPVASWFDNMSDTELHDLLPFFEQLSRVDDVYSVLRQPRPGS

[3] = target: T3, High affinity choline transporter 1 (Homo sapiens, UniProt Q9GZV3); assay: human choline transporter blockers, potency – cell-based, 10-point CRC, membrane potential dye, dose response (AID 588401); assay type: functional;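 further: membrane potential dye fluorescence of choline-evoked depolarization via CHT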
T3 sequence (Q9GZV3 whole entry): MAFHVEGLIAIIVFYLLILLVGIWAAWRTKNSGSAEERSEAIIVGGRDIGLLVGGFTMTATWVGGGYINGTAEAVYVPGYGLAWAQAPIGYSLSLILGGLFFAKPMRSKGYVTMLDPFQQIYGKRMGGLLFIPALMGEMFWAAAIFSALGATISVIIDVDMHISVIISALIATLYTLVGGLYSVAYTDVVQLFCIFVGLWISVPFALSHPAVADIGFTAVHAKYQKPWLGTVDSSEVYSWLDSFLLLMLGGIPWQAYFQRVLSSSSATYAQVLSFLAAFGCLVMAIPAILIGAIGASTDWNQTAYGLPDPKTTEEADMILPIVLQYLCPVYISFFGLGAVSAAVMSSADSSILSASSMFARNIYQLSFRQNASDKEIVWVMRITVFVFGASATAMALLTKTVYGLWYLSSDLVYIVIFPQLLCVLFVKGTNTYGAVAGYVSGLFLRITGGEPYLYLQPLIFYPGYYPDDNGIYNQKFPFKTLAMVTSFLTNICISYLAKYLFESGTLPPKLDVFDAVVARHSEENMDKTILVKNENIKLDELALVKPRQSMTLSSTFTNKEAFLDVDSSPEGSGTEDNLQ

[4] = target: T4, Protein RecA (Mycobacterium tuberculosis, UniProt P9WHJ3); assay: Fluorescence Cell-Free Homogeneous Dose Retest to Identify Inhibitors of RecA-Intein Splicing Activity. [Related pubchem assays (depositor defined):AID2097, AID2223, AID489010, AID492950]; assay type: functional
T4 sequence (P9WHJ3 whole entry): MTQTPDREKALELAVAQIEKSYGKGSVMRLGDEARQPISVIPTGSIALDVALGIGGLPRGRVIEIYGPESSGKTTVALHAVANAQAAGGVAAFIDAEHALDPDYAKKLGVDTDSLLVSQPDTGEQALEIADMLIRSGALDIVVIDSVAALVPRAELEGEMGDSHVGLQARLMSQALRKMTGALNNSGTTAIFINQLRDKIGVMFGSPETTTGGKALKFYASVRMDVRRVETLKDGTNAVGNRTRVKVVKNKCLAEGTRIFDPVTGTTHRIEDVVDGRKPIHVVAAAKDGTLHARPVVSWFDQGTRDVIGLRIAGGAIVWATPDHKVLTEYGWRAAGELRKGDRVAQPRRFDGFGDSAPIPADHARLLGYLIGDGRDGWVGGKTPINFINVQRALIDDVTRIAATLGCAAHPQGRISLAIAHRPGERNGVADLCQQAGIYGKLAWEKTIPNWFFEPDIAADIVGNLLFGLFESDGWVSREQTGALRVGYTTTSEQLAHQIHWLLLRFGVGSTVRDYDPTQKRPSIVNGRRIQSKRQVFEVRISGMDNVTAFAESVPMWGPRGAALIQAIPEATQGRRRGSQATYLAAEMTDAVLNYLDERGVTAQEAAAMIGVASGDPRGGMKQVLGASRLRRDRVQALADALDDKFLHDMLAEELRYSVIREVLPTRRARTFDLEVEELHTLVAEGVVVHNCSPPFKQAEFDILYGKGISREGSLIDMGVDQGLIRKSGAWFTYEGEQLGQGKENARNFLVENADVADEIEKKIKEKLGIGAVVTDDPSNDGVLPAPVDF

[5] = target: T5, Replicative DNA helicase DnaB (Mycobacterium tuberculosis, UniProt P9WMR3); assay: DnaB intein splicing inhibitors, dose response, biochemical, cell-free fluorescence (AID 449749); assay type: functional
T5 sequence (P9WMR3 whole entry): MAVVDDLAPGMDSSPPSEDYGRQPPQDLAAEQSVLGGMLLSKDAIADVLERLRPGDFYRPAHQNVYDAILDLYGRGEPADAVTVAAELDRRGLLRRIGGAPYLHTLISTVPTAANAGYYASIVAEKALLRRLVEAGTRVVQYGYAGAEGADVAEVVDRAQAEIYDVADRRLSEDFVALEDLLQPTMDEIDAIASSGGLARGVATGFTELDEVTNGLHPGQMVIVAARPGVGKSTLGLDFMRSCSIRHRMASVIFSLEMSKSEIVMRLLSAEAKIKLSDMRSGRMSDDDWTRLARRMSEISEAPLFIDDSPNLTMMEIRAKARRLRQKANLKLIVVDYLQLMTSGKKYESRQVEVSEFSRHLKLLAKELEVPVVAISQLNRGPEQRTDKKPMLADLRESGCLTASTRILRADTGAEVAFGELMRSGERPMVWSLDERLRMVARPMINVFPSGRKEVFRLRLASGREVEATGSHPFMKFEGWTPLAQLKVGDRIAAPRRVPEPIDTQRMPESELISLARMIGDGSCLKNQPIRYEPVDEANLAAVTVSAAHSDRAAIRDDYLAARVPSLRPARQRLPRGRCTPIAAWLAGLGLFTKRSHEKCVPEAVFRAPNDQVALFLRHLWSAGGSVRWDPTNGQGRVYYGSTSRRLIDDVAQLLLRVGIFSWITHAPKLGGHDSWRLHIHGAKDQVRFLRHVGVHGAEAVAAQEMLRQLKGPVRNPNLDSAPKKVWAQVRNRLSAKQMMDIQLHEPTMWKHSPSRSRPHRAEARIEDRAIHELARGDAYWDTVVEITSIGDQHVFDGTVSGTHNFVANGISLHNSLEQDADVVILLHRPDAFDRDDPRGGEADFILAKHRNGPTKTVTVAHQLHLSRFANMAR

[6] = non-specific 3'UTR reporter inhibition in Clone20-Shn3RL – cell-based, Renilla luciferase, cherry-picked, counter-screen for Shn3 inhibitor project, dose response (AID 624133); assay type: functional
[7] = target: Genome polyprotein (dengue virus type 2, UniProt P29990); assay: flavivirus cap methylation enzyme inhibition – biochemical, confirmation dose response, primary screen (AID 588689); assay type: functional
[8] = target: Potassium voltage-gated channel subfamily KQT member 2 (Rattus norvegicus, UniProt O88943, W236L); assay: potentiation of rat KCNQ2 current – cell-based, automated electrophysiology, mechanism study for KCNQ2 potentiator project, dose response (AID 2603); assay type: functional
[9] = target: T3, High affinity choline transporter 1; assay: human choline transporter blockers, potency – cell-based, 5-point CRC, membrane potential dye, dose response (AID 504840); assay type: functional
[10] = reduction of Shn3 3'UTR-driven luciferase in osteoblasts – cell-based, Clone20 osteoblasts, firefly luciferase, cherry-picked, dose response (AID 624132); assay type: functional;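 further: firefly luciferase luminescence from reporter carrying the Shn3 3'UTR in osteoblasts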
[11] = target: ATP-binding cassette sub-family B member 6 (Homo sapiens, UniProt Q9NP58); assay: ABCB6 transporter inhibitors, porphyrin accumulation, dose response, flow cytometry, K562-ABCB6 cells, cherry pick 02 (AID 624487); assay type: functional; details: read-out: EC50_MICROM
[12] = system: Vero; assay: viability of Vero cells under compound – cytotoxicity control for flavivirus capping enzyme inhibitors (AID 588742); assay type: functional; details: Chlorocebus sabaeus
[13] = loss of viability in HepG2 cells – cell-based, CellTiter-Glo, cherry-picked, cytotoxicity control for Shn3 inhibitor project, dose response (AID 624134); assay type: functional

Chain of Genome polyprotein (P29990 2492-3391 limits assumed): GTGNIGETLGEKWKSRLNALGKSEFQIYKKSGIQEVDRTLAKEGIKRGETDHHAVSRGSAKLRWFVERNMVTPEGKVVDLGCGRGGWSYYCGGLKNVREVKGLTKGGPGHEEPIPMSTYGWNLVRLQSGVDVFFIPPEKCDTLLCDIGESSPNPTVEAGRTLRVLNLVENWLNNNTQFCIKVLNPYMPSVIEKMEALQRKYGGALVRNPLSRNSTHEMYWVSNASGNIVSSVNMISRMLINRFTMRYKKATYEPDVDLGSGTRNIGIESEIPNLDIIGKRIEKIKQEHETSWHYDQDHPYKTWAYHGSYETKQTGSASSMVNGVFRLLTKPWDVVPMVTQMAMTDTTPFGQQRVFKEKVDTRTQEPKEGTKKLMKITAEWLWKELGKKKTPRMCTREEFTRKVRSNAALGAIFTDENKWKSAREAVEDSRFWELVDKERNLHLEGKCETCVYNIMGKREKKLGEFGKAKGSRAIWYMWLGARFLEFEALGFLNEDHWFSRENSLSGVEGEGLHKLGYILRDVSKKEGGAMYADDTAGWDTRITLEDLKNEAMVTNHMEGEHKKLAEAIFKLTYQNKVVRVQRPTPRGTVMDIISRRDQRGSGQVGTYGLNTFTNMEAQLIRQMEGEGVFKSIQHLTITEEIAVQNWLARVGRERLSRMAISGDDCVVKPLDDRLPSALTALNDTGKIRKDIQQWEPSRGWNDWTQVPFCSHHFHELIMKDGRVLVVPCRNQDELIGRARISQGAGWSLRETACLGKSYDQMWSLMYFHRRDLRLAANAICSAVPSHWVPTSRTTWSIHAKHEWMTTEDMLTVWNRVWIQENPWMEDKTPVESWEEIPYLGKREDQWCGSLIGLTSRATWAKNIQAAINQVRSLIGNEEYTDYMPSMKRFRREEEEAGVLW
Chain of ATP-binding cassette sub-family B member 6 (Q9NP58 whole entry): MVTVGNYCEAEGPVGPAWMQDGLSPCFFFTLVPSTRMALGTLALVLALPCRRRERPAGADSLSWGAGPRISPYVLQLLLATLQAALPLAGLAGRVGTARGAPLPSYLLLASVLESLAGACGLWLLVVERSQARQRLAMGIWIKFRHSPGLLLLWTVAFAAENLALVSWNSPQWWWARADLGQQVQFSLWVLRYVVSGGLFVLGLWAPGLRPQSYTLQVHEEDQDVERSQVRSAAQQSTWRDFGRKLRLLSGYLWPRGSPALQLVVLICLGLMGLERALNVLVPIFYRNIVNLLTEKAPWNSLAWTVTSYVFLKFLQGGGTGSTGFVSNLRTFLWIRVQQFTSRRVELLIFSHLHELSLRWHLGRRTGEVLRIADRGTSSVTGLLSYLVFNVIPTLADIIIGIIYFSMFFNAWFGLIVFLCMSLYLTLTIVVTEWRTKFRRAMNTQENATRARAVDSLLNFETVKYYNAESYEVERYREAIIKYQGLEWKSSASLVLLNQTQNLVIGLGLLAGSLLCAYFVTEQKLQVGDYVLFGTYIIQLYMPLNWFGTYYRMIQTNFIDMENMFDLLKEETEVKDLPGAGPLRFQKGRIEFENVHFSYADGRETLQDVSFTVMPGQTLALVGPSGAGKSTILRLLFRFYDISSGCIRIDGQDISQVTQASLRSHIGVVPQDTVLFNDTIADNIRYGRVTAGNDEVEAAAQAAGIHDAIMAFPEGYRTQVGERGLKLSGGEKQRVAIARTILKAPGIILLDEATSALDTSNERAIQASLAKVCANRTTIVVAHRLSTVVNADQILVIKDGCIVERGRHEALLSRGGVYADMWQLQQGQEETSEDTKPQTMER
Chain of Potassium voltage-gated channel subfamily KQT member 2 (O88943 whole entry W236L): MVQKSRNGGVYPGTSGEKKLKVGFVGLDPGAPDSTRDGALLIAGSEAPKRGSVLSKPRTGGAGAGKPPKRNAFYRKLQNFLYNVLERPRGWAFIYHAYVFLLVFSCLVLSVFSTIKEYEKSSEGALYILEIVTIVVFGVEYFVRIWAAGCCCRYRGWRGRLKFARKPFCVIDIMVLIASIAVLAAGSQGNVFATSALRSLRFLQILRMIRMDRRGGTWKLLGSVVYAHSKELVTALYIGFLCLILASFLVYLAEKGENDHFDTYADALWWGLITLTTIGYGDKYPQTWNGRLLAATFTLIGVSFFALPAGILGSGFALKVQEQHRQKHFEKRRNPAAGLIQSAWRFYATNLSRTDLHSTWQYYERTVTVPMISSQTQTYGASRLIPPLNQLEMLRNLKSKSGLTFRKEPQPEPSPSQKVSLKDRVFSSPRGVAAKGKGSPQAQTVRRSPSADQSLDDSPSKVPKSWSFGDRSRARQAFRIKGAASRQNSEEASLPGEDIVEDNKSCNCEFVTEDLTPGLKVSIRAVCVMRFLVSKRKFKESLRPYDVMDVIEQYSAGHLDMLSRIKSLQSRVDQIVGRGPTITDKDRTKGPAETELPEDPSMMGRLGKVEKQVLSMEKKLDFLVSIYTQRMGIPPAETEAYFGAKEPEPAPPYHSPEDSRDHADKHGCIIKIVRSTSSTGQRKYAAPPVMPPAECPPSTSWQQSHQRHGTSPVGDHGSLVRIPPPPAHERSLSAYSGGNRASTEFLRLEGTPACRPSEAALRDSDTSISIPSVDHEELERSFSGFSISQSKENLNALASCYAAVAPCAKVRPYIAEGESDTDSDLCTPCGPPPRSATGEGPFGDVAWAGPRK

| Compound | IC50 [1] | IC50 [2] | IC50 [3] | EC50 [4] | AC50 [5] | AC50 [6] | IC50 [7] | EC50 [8] | IC50 [9] | AC50 [10] | EC50 [11] | CC50 [12] | AC50 [13] |
| --- | --- | --- | --- | --- | --- | --- | --- | --- | --- | --- | --- | --- | --- |
| CCCN(CCC)S(=O)(=O)c1ccc(NC(=O)Cc2cccs2)cc1 | 16.7 µM (active) | 9.83 µM (active) |  |  |  |  |  |  |  |  |  |  |  |
| CCc1nnc(NC(=O)c2nc(S(=O)(=O)Cc3ccc(C)cc3)ncc2Cl)s1 |  |  | 3.11 µM (active) | 4.11 µM (active) | 5.97 µM (active) | 6.18 µM (active) | > 100 µM (active) | 4.8 µM (active) | 3.31 µM (active) | 3.01 µM (active) | 29.5 µM (active) | 28.9 µM (active) | > 70 µM (inactive) |
